# Assay results as given in patent US8592466B2, “Methods for treating conditions caused by higher-than-normal dopaminergic activity in basal ganglia” (Neuropill, Inc., priority 2008, dated 2013).
# Assays:
# serum prolactin = experiment: Serum prolactin radioimmunoassay; format: in vivo, humans
# Experimental: Blood for prolactin level determinations were collected on day 0 at 6:00 A.M. before breakfast (7:00 A.M.) and also three times a day on days 15, 22 and 29 with first blood draw performed at 6:00 A.M. before the morning dose of RPR 102681 (6:05 A.M.) and the other two at 30 minutes after each i.v. infusion. Prolactin levels on days 15, 22, and 29 were compared between RPR 102681 and placebo cohorts to determine the extent to which prolactin levels are modified by the administration of RPR 102681 using repeated measures ANOVA. Changes in prolactin level induced by 40 mg cocaine infusion along with RPR 102681 (days 15, 22 and 29) were compared for each subject by RPR 102681 dose level using repeated measures ANOVA.
# Prolactin concentrations were determined using a commercially available radioimmunoassay (Coat-A-Count® Prolactin IRMA, Diagnostic Products Corporation, Los Angeles, Calif.). Calibrator and QCs (CONE, lots #019 and 020) were also supplied by the manufacturer. Fifty microliters of calibrators, QCs and study samples were added to prolactin polyclonal antibody-coated tubes. This was followed by 200 μL of ^125I-labeled prolactin monoclonal antibodies, followed by shaking for 2 hours. The tubes were decanted and drained; 2 mLs of buffered wash solution was added for 1-2 minutes; the tubes were again decanted and drained; this was followed by a second wash step. After thorough draining, the radioactivity in the tubes was determined from 1 minute counts using a Packard Cobra II gamma counter (Downers Grove, Ill.). In theory, the ^125I-labeled prolactin monoclonal antibodies bind only to prolactin bound to the antibody coated onto the tubes. The radioactivity retained in the tube increases as does the amount of prolactin in the samples. The software for the gamma counter generates a standard curve based on the log of the concentration and the log of the B/Bo for the calibrators. This curve is used to back-calculate the concentration of prolactin in the samples. […]
# DA release in striatum = experiment: [11C]-raclopride PET binding potential; format: in vivo, humans
# Experimental: The Positron Emission Tomography (PET) scans were performed at the PET Center of Johns Hopkins University at Johns Hopkins Hospital, Baltimore, Md. During the PET scans three plasma samples of RPR 102681 were obtained from each subject under different dosing to measure RPR 102681 plasma concentration.
# Each subject was also studied using Magnetic Resonance Imaging (MRI). Each subject received an individual thermoplastic mask molded to their face to allow for repositioning and stabilizing of the head during the MRI procedure and PET scan later. Marks, which localized the anatomical structures of interest, were placed on the mask following the MRI scan. In particular, each subject received an MRI with a sagittal scout view to localize the anterior commissure-posterior commissure (AC-PC) line to allow standardized positioning across the subjects based on the anatomical landmarks. […]
# [^11C]-raclopride PET scans were preformed on days 6, 13, 20 and 27. […] To measure the specific binding of tracer, binding potential (BP) images were generated by a simplified reference model with a linear regression algorithm (Using a reference tissue model with spatial constraint to quantify [^11C] Pittsburgh compound B PET for early diagnosis of Alzheimer's disease, Yun Zhou, Susan M. Resnick, Weiguo Ye, Hong Fan, Daniel P. Holt, William E. Klunk, Chester A. Mathis, Robert Dannals, and Dean F. Wonga, NeuroImage 36 (2007) 298-312). […]
# Subjects received PET scans with [^11C]-raclopride at baseline after uneventful completion of screening cocaine infusions and assignment to RPR 102681 or placebo treatment and on the fifth day of each RPR 102681 dose level (days 13, 20 and 27). After six subjects had completed all four PET scans these subjects' PET scan data was analyzed without breaking the blind to determine whether or not the PET scans should have been administered to any additional subjects. […]
# [1] = system: dopamine release in the ventral striatum; settings: animal data, cited from earlier work
# [2] = 12 healthy adult human subjects; most events, except for one subject; cited from earlier work
# [3] = Cocaine and BE pharmacokinetics under RPR 102681 treatment; settings: post-treatment RPR 102681 doses vs baseline
# [4] = Phase I cocaine interaction study: heart rate and blood pressure
smiles,measurement,setting,value
"CC(C(=O)O)c1cccc(NC(=O)NCC(=O)N2C(C(=O)OC(C)(C)C)CSC2c2ccccc2F)c1 [RPR 102681, (2S)-2-{3-[3-({[(2R,4R)-4-tert-Butoxycarbonyl-2-(2-fluorophenyl)]-3-thiazolidinyl}carbonylmethyl)ureido]phenyl}propionic acid]",post-cocaine prolactin value vs post-saline value,"serum prolactin; RPR 102681 group, day 29",significantly lower
same,"serum prolactin levels, RPR 102681 vs placebo subjects","serum prolactin; day 0 and pre-infusion days 15, 22, 29",no significant differences
same,"serum prolactin response to cocaine or saline infusion, RPR 102681 vs placebo","serum prolactin; infusion days 15, 22, 29",no significant difference
same,change in [11C]-raclopride binding potential (BP),"DA release in striatum; Dosing Schedule A, caudate nucleus, putamen or ventral striatum",no statistically significant change
same,change in [11C]-raclopride binding potential (BP),"DA release in striatum; Dosing Schedule B, dose 60-90 minutes prior to PET scan, caudate nucleus and ventral striatum, P<0.001",significantly increased BP
same,dopamine release inferred from raclopride binding potential,"DA release in striatum; humans, PET brain imaging",inhibited dopamine release
same,dopamine release in the ventral striatum (microdialysis),[1]; intraperitoneal administration,stimulates dopamine release
same,release of dopamine compared to baseline values,"[1]; intraperitoneal, highest dose tested 20 mg/Kg",almost tripled
same,severity of adverse events and treatment-associated adverse events,[2],mild or moderate
same,"cocaine and BE pharmacokinetic parameters, difference from baseline",[3],No statistically significant differences
same,elevation of DBP after cocaine,"[4]; RPR 800 mg, cocaine 20 mg i.v., P-value=0.093",reduces
same,elevation of HR after cocaine,"[4]; RPR 800 mg, cocaine 40 mg i.v., P-value=0.009",reduces the elevation of HR
same,elevation of SBP after cocaine,"[4]; RPR 102681 200 mg, cocaine 20 mg i.v., P-value=0.031",increased the elevation of SBP
same,SBP increase in response to cocaine vs placebo group,"[4]; cocaine 20 mg, GEE model adjusted for baseline, P-value=0.0412",significantly greater SBP increase
same,maximum HR/SBP/DBP changes across RPR 102681 dose conditions,"[4]; pair-wise comparisons within RPR 102681 group, in general",does not significantly change HR/SBP/DBP
same,"HR/SBP/DBP, RPR 102681 vs placebo groups","[4]; prior to infusions, post saline or post cocaine infusions, any day",no statistical difference
